Tests used:
[1] = Chiral stability (interconversion) of isolated atropisomers on heating, chiral HPLC; type: physicochemical; conditions: for % ee of sample @ 40° C. / % ee sample @ 80° C.: EtOH solution, listed as A-2
Procedure: Stability studies were carried out on the isolated atropisomers, atropisomers A-1 and A-2. To assess the interconversion of atropisomer A-1 and atropisomer A-2 chiral stability was monitored at 40° C. and 80° C. […] 1. 2×1 mg of pure atropisomer was dissolved in 1 mL of EtOH in a sealed-dram vial. 2. One set of vials was heated at 40° C. and another set at 80° C. 3. […] 4. Analysis was carried out at the following timepoints: 0 h, 24 h, 48 h, 72 h, 96 h and 240 h for the samples kept at 40° C. and 24 h, 96 h and 240 h for the samples kept at 80° C. using Chiral HPLC method 5

[2] = test system: HeLa cells stably expressing a Centrin1-GFP fusion protein; assay: Centriole number in Centrin1-GFP HeLa cells; type: cell-based; conditions: 0.02 μM, 72 hours
Procedure: The effects of A-1 and A-2 on centrosome function were therefore investigated further. HeLa cells stably expressing a Centrin1-GFP fusion protein were seeded into 96-well plates overnight. Cells were treated with atropisomer A-1 or atropisomer A-2 (at concentrations of 0.02 μM in DMSO) or DMSO control for 72 hours and then imaged using a fluorescence microscope. Multiple cell fields were captured for each treatment condition, and the images were subsequently analysed manually. Centrin1-GFP specifically marks centrioles as discrete foci, and therefore can be used to quantitate centriole number per cell. Thus, for each treatment condition, 100 cells were analysed and the number of centrioles present in each cell was recorded. The data were then separated into bins (no centrioles, 1 centriole, 2 centrioles, and greater than 2 centrioles) and are shown in FIG. 11.

[3] = Mouse PK, plasma after i.v. and p.o. dosing (oral bioavailability); type: in vivo, Male CD-1 mice; conditions: for half-life: read-out: T ½ (converted)
Procedure: (§1) Atropisomers A-2 and A-3 were evaluated in an in vivo mouse model to determine brain and plasma concentrations following p.o. and i.v. dosing.
(§2) Male CD-1 mice were dosed with the compounds of Examples A-2 and A-3, either by i.v. administration (2 mg/kg) or by p.o. administration (10 mg/kg). Eight samples were taken for analysis in the i.v. leg at 2, 10, 30 min, 1, 2, 4, 8, and 24 (for i.v) and 9 samples in the p.o. leg at 15, 30 min, 1, 2, 4, 8, 24, 48 and 72 hrs.
(§3) The compounds of Examples A-2 and A-3 were both formulated in 10% DMSO/90% hydroxypropyl-beta-cyclodextrin (20% w/v in water) for i.v. and p.o. dosing. N =3 mice per time point.
(§4) Post dosing, terminal blood samples were taken from individual animals and delivered into labelled polypropylene tubes containing anticoagulant (EDTA). The samples were held on wet ice for a maximum of 30 min while sampling of all the animals in the cohort was completed. The blood samples were centrifuged for plasma (4° C., 21100 g for 5 min) and the resulting plasma transferred into corresponding labelled tubes. Terminal brains from each PO dosed animal were excised, rinsed with saline and placed into pre-weighed labelled polypropylene tubes and the samples re-weighed prior to storage.
(§5) Quantitative bioanalysis was carried out using liquid chromatography—mass spectroscopy was performed. The results are shown in Tables 14, 15 and 16 below and in FIGS. 12 to 15.

[4] = Mouse PK, brain exposure after p.o. dosing; type: in vivo, Male CD-1 mice
Procedure: as §1, §2, §3, §4, §5

U87MG tumours = assay: U87MG subcutaneous xenograft model; type: in vivo, Male athymic nude mice; conditions: oral 100 mg/kg on days 1, 4 and 7; day 13
Procedure: Male athymic nude mice bearing U87MG tumours were given an oral dose of 100 mg/kg of atropisomer A-2 on days 1, 4 and 7 and the tumour volumes were measured over 20 days. Tumour volumes in a control group of tumour-bearing mice, who had received vehicle only at the same time points were also measured.

U87-Luc cells = assay: U87-Luc orthotopic xenograft model; type: in vivo, male athymic nude mice; conditions: oral 100 mg/kg on days 1, 4, 7, 10 and 13; Day 15
Procedure: U87-Luc cells were intracerebrally implanted into the brains of male athymic nude mice and tumour growth was monitored by bioluminescent signal. In the treatment group animals were given an oral dose of 100 mg/kg of atropisomer A-2 on days 1, 4, 7, 10 and 13. The control group animals were given vehicle only.

[5] = mouse, 2 mg/kg, 2 mq/Kq IV, male CD-1 mice, plasma
[6] = mouse, 10 mg/kg, 10 mq/Kq PO, male CD-1 mice, plasma
[7] = mouse, po, brain exposure, p.o. 10 mg/kg, male CD-1 mice

CN(C)CCNC(=O)c1ccc(-c2ccc(-c3ccc(Cl)cc3)n2-c2ccccc2C(F)(F)F)cc1 (single isomer, unassigned) [Atropisomer A-2, 4-[5-(4-chlorophenyl)-1-[2-(trifluoromethyl)phenyl]pyrrol-2-yl]-N-[2-(dimethylamino)ethyl]benzamide]
% ee of sample @ 40° C. ([1]; 0 h): 97.20 % ee | % ee of sample @ 40° C. ([1]; 24 h): 97.34 % ee | % ee of sample @ 40° C. ([1]; 48 h): 97.30 % ee | % ee of sample @ 40° C. ([1]; 72 h): 97.24 % ee | % ee of sample @ 40° C. ([1]; 96 h): 97.14 % ee | % ee of sample @ 40° C. ([1]; 10 days): 97.46 % ee | % ee sample @ 80° C. ([1]; 0 h): 97.20 % ee | % ee sample @ 80° C. ([1]; 24 h): 95.62 % ee | % ee sample @ 80° C. ([1]; 96 h): 96.62 % ee | % ee sample @ 80° C. ([1]; 10 days): 97.12 % ee | atropisomer classification (LaPlante) ([1]; from stability of isolated atropisomers): Class 3 | interconversion / racemization of atropisomers on heating ([1]; heating for 10 days at 40° C. and 80° C.): no interconversion was observed | PLK4 inhibition phenotypes (centriole number) [2]: exhibits evidence of PLK4 inhibition phenotypes | CI ([3]; 2 mq/Kq IV, male CD-1 mice, plasma): 20.5 mL/min/kg | F ([3]; 10 mq/Kq PO vs 2 mq/Kq IV, male CD-1 mice): 76% | AUC(0-inf) [3, 5]: 1620 ng·h/mL | Cmax [3, 5]: 278 ng/mL | half-life [3, 5]: 9 h | AUC(0-inf) [3, 6]: 6130 ng·h/mL | Cmax [3, 6]: 265 ng/mL | half-life [3, 6]: 10.7 h | AUC(0-t) ([3]; mouse, po, plasma, p.o. 10 mg/kg, male CD-1 mice, read-out: AUClast plasma): 6130 ng·h/mL | oral absorption / oral bioavailability (in words) ([3]; oral dosing in mice): highly absorbed | Kp ([4]; male, CD-1, mouse, brain and plasma, 10 mg/kg, brain:plasma, oral dosing in mice, read-out: AUC B:P ratio): 3.3 | Cmax [4, 7]: 693 ng/mL | Tmax [4, 7]: 8 h | half-life ([4]; mouse, po, brain exposure, p.o. 10 mg/kg, male CD-1 mice, read-out: T ½ (converted)): 12.1 h | AUC(0-t) ([4]; mouse, po, brain, p.o. 10 mg/kg, male CD-1 mice, read-out: AUClast brain): 20500 ng·h/mL | brain exposure (in words) ([4]; oral dosing in mice): high brain exposure | tumour volume % T/C (U87MG tumours): 3.85% | tumour bioluminescent signal treated versus control (U87-Luc cells): decrease in tumour signal

From patent US20220348565A1, “PHARMACEUTICAL COMPOUNDS” (SENTINEL ONCOLOGY LIMITED, priority 2019, published 2022)
